The subject of one data set is Caenorhabditis elegans. In words: Insecticidal activity against Caenorhabditis elegans. It is filed as in vivo. The following applies: Caenorhabditis elegans, read-out: insecticidal activity, Caenorhabditis elegans.
The subject of another data set is Alternaria solani. In words: Fungicidal activity, fungicide growth rate method, AS. The data set is classed as cell-based. The following applies: Alternaria solani, 50 μg/mL; read-out: fungicidal activity (growth inhibition rate), AS.
A further data set has as its system Botrytis cinerea. Put plainly: Fungicidal activity, fungicide growth rate method, BC. The data set is classed as cell-based. The following applies: Botrytis cinerea, 50 μg/mL; read-out: fungicidal activity (growth inhibition rate), BC.
The subject of a further data set is Cercospora arachidicola. In words: Fungicidal activity, fungicide growth rate method, CA. It is filed as cell-based. As to conditions: Mycosphaerella arachidis, 50 μg/mL; read-out: fungicidal activity (growth inhibition rate), CA.
Another data set has as its system wheat Gibberella zeae. Put plainly: microbe, parasite or virus in culture. As to conditions: Fusarium graminearum, read-out: fungicidal activity (growth inhibition rate), GZ, 50 μg/mL. It is filed as cell-based.
In data set [1] the test system is Phytophthora infestans (Mont.) de Bary. Put plainly: microbe, parasite or virus in culture. It is filed as cell-based. The following applies: Phytophthora infestans, read-out: fungicidal activity (growth inhibition rate), PI, 50 μg/mL.
Another data set deals with Physalospora piricola. Put plainly: Fungicidal activity, fungicide growth rate method, PP. The data set is classed as cell-based. The following applies: 50 μg/mL; read-out: fungicidal activity (growth inhibition rate), PP.
A further data set concerns Pellicularia sasakii. Put plainly: Fungicidal activity, fungicide growth rate method, PS. It is filed as cell-based. As to conditions: 50 μg/mL; read-out: fungicidal activity (growth inhibition rate), PS.
For a further data set, the system named is Rhizoctonia cerealis. In words: Fungicidal activity, fungicide growth rate method, RC. It is filed as cell-based. The following applies: Ceratobasidium cereale, 50 μg/mL; read-out: fungicidal activity (growth inhibition rate), RC.
For a further data set, the system named is Tobacco Mosaic Virus. Put plainly: Anti-TMV inactivation activity on tobacco plants. It is filed as in vivo. Set-up: concentration or dose not given beside the values. As to conditions: compound mixed with TMV solution 30 minutes, lesions checked three days later.
For data set [2], the system named is Mythimna separate (Walker). In words: Insecticidal activity against Mythimna separate (Walker). The data set is classed as in vivo. The following applies: Mythimna, read-out: insecticidal activity, Mythimna separate (Walker).
Data set [3] concerns Helicoverpa armigera (Hübner). In words: Insecticidal activity against Helicoverpa armigera (Hübner). The data set is classed as in vivo. The following applies: Helicoverpa armigera, read-out: insecticidal activity, Helicoverpa armigera (Hübner).
Another data set relates to Ostrinia furnacalis. In words: Insecticidal activity against Ostrinia furnacalis. The data set is classed as in vivo. As to conditions: Ostrinia furnacalis, read-out: insecticidal activity, Ostrinia furnacalis.
Data set [4] concerns Apis mellifera ligustica Spin. The following applies: for Death number after 24 h / Death number after 48 h: per replicate of 10 bees.
The subject of another data set is Sclerotinia sclerotiorum. Put plainly: Fungicidal activity, fungicide growth rate method, SS. The following applies: Sclerotinia sclerotiorum, 50 μg/mL. It is filed as cell-based.

Values joined by “and” are separate entries in the source; they are usually repeats but may differ in a detail not shown here. Equal values may be shown once. Read-outs that look alike come from different tables or passages of the source.

As for `C=CC[C@@H]1C[C@]2(O)CC(=O)O[C@@]23C[C@H]2O[C@H]2C[C@H]13` [Zyj07-13], the pest or weed control at 100 µg/mL in the data set with Caenorhabditis elegans (100 μg/mL) was 20%. Moreover, the inhibition at 50 µg/mL with Alternaria solani was 10%; in the data set on Botrytis cinerea, more than 50%; with Cercospora arachidicola it was 8%; in the data set with wheat Gibberella zeae, 14%; in [1] it was 0%; in the data set on Physalospora piricola, 30%. Moreover, the figures for the inhibition at 50 µg/mL in the data set on Pellicularia sasakii and with Rhizoctonia cerealis were 6% and 43%, respectively. In addition, the “TMV inactivation (anti-TMV activity)” value in the data set with Tobacco Mosaic Virus came to 11%.
For `CC(=O)O[C@@]12C[C@H]3CC=CC[C@@]1(O3)[C@@H]1CC=CC[C@@H]1C2` [Zyj07-41-2], the pest or weed control at 100 µg/mL in data set [2] (100 μg/mL) is 10%; in data set [3] (100 μg/mL), 15%; in the data set on Ostrinia furnacalis (100 μg/mL), 0%; in the data set with Caenorhabditis elegans (100 μg/mL) it was 12%. In addition, the inhibition at 50 µg/mL with Alternaria solani is 14%; in the data set on Botrytis cinerea, 34%; in the data set on Cercospora arachidicola, more than 50%; with wheat Gibberella zeae, 20%; in data set [1], 25%; in the data set with Physalospora piricola, more than 50%. Besides, the inhibition at 50 µg/mL in the data set on Pellicularia sasakii was determined as 41%. In addition, the “TMV inactivation (anti-TMV activity)” value with Tobacco Mosaic Virus is 18%. The “Death rate after 48 h (%)” value in data set [4] (dosage 8.70 μg a.i./bee) and in data set [4] (dosage 13.5 μg a.i./bee) was 0% in each case. Moreover, the “Death number after 24 h” value in [4] (dosage 8.70 μg a.i./bee) and in data set [4] (dosage 13.5 μg a.i./bee) was 0 each time. The “Death number after 48 h” value in data set [4] (dosage 8.70 μg a.i./bee) and in [4] (dosage 13.5 μg a.i./bee) was 0 in each case.
Regarding `C=CC[C@@H]1C[C@@]2(OC(C)=O)C[C@@H](CC=C)[C@H]3C[C@H]4O[C@H]4C[C@@]32O1` [Zyj07-67-1], the pest or weed control at 100 µg/mL in [2] (100 μg/mL) came out at 20%; in data set [3] (100 μg/mL), 10%; with Ostrinia furnacalis (100 μg/mL) it was 5%. The inhibition at 50 µg/mL was 0% in the data set on Alternaria solani; more than 50% in the data set on Botrytis cinerea; 14% in the data set on Cercospora arachidicola; 23% in the data set on wheat Gibberella zeae; 32% in [1]; 31% in the data set with Physalospora piricola. Moreover, the inhibition at 50 µg/mL with Pellicularia sasakii came out at 18%; in the data set with Rhizoctonia cerealis, 0%. Further, the “TMV inactivation (anti-TMV activity)” value in the data set with Tobacco Mosaic Virus was 7%.
With `CO[C@@H]1C[C@]2(O)CC(=O)O[C@@]23CC=CC[C@H]13` [Zyj06-189], the pest or weed control at 100 µg/mL in [2] (100 μg/mL) came to 0%; in data set [3] (100 μg/mL), 0%; with Ostrinia furnacalis (100 μg/mL), 0%; with Caenorhabditis elegans (100 μg/mL), 8%. Moreover, the inhibition at 50 µg/mL with Alternaria solani was 0%; in the data set on Botrytis cinerea it was more than 50%; with Cercospora arachidicola, 24%; with wheat Gibberella zeae it was 13%; in [1] it was 23%; with Physalospora piricola, more than 50%. The values for the inhibition at 50 µg/mL in the data set with Pellicularia sasakii, with Rhizoctonia cerealis and with Sclerotinia sclerotiorum were 23%, 29% and 0%, respectively. Besides, the “Death rate after 48 h (%)” value in [4] (dosage 9.77 μg a.i./bee) and in [4] (dosage 16.4 μg a.i./bee) was 0% in each case. The “Death number after 24 h” value in data set [4] (dosage 9.77 μg a.i./bee) and in [4] (dosage 16.4 μg a.i./bee) was 0 throughout. Besides, the “Death number after 48 h” value in data set [4] (dosage 9.77 μg a.i./bee) and in data set [4] (dosage 16.4 μg a.i./bee) was 0 each time.
`O=C1C[C@@]2(O)CC[C@H]3CC=CC[C@@]32O1` [Zyj07-96]: the pest or weed control at 100 µg/mL is more than 30% in [2] (100 μg/mL), 15% in data set [3] (100 μg/mL) and 10% with Ostrinia furnacalis (100 μg/mL). The inhibition at 50 µg/mL in the data set on Alternaria solani is more than 60%; in the data set on Botrytis cinerea, 25%; in the data set on wheat Gibberella zeae, more than 50%; in [1], 24%; in the data set with Pellicularia sasakii, more than 60%; in the data set on Sclerotinia sclerotiorum, more than 50%. In addition, the “TMV inactivation (anti-TMV activity)” value with Tobacco Mosaic Virus was determined as 23%. Moreover, the “Death rate after 48 h (%)” value in data set [4] (dosage 9.54 μg a.i./bee) and in [4] (dosage 15.5 μg a.i./bee) was 0% in each case. In addition, the “Death number after 24 h” value in data set [4] (dosage 9.54 μg a.i./bee) and in [4] (dosage 15.5 μg a.i./bee) was 0 throughout. The “Death number after 48 h” value in [4] (dosage 9.54 μg a.i./bee) and in [4] (dosage 15.5 μg a.i./bee) was 0 throughout.
As to `C=CC[C@@H]1C[C@@]2(O)C[C@@H](CC=C)[C@H]3C[C@@H](O)CC[C@@]32O1` [Zyj07-68], the pest or weed control at 100 µg/mL worked out at 0% in data set [2] (100 μg/mL), 0% in data set [3] (100 μg/mL), 0% with Ostrinia furnacalis (100 μg/mL) and 13% with Caenorhabditis elegans (100 μg/mL). In addition, the inhibition at 50 µg/mL in the data set with Alternaria solani worked out at 3%; in the data set with Botrytis cinerea, 36%; with Cercospora arachidicola it was 19%; with wheat Gibberella zeae, 0%; in [1], 13%; in the data set with Physalospora piricola, 2%. The inhibition at 50 µg/mL in the data set with Pellicularia sasakii was 9%; with Rhizoctonia cerealis, 21%; in the data set with Sclerotinia sclerotiorum it was more than 50%. Besides, the “Death rate after 48 h (%)” value in [4] (dosage 9.97 μg a.i./bee) was 10.0%; in data set [4] (dosage 16.1 μg a.i./bee), 0%. Also, the “Death number after 24 h” value in [4] (dosage 9.97 μg a.i./bee) and in data set [4] (dosage 16.1 μg a.i./bee) was 0 each time. Besides, the “Death number after 48 h” value in data set [4] (dosage 9.97 μg a.i./bee) was determined as 1; in data set [4] (dosage 16.1 μg a.i./bee) it was 0.
As for `C=CC[C@@H]1C[C@]2(O)CCO[C@@]23C[C@H](O)CC[C@H]13` [Zyj07-32], the pest or weed control at 100 µg/mL in [2] (100 μg/mL) came out at 0%; in data set [3] (100 μg/mL) it was 0%; in the data set on Ostrinia furnacalis (100 μg/mL) it was 0%; with Caenorhabditis elegans (100 μg/mL) it was 20%. Further, the inhibition at 50 µg/mL with Alternaria solani was more than 60%; in the data set on Botrytis cinerea, 23%; with Cercospora arachidicola it was more than 50%; with wheat Gibberella zeae, 33%; in data set [1], more than 60%; in the data set with Pellicularia sasakii it was 16%. Besides, in the data set on Rhizoctonia cerealis, the inhibition at 50 µg/mL worked out at 39%. In addition, the “TMV inactivation (anti-TMV activity)” value with Tobacco Mosaic Virus was determined as 9%. For the same compound, the “Death rate after 48 h (%)” value in data set [4] (dosage 2.73 μg a.i./bee) amounted to 10.0%; in [4] (dosage 10.0 μg a.i./bee) it was 5.0%. In addition, the “Death number after 24 h” value was 0 and 2 in data set [4] (dosage 2.73 μg a.i./bee); 0 in data set [4] (dosage 10.0 μg a.i./bee). Further, the “Death number after 48 h” value in data set [4] (dosage 2.73 μg a.i./bee) is 0 and 2; in data set [4] (dosage 10.0 μg a.i./bee) it was 1 and 0.
In the case of `C=CC[C@@H]1C[C@]2(O[Si](C)(C)CC=C)CCO[C@@]23CC[C@H](O[Si](C)(C)CC=C)C[C@@H]13` [Zyj07-48], the pest or weed control at 100 µg/mL worked out at 0% in data set [2], 0% in data set [3], 0% with Ostrinia furnacalis and 25% in the data set with Caenorhabditis elegans. Also, the inhibition at 50 µg/mL in the data set with Alternaria solani is 0%; with Botrytis cinerea, more than 50%; in the data set on Cercospora arachidicola it was 35%; in the data set with wheat Gibberella zeae it was 7%; in data set [1], 19%; with Physalospora piricola, 13%. Besides, the results for the inhibition at 50 µg/mL in the data set with Pellicularia sasakii, in the data set on Rhizoctonia cerealis and with Sclerotinia sclerotiorum were 14%, 0% and more than 50%, respectively. The “Death rate after 48 h (%)” value in [4] (dosage 9.89 μg a.i./bee) came to 5.0%; in data set [4] (dosage 19.8 μg a.i./bee), 0%. Besides, the “Death number after 24 h” value in data set [4] (dosage 9.89 μg a.i./bee) and in [4] (dosage 19.8 μg a.i./bee) was 0 each time. In addition, the “Death number after 48 h” value in data set [4] (dosage 9.89 μg a.i./bee) is 0 and 1; in data set [4] (dosage 19.8 μg a.i./bee) it was 0.

The record behind these values is patent US11716992B2, “5A5B6C tricyclic spirolactone derivative, preparation method therefor and use thereof” (NANKAI UNIVERSITY, priority 2017, dated 2023).
